According to the supplement of paper PMC10307832:

Assays:
Experiment in all cases: relative viability (nuclei count vs DMSO), 5 days (fraction); higher = more cells survive
Bemcentinib + Linsitinib = compound: Nc1nc(Nc2ccc3c(c2)CC[C@@H](N2CCCC2)CC3)nn1-c1cc2c(nn1)-c1ccccc1CCC2 [Bemcentinib] + C[C@]1(O)C[C@@H](c2nc(-c3ccc4ccc(-c5ccccc5)nc4c3)c3c(N)nccn32)C1 [Linsitinib] (partner 1 µM)
Summary of the method: (§1)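 Relative viability equals treated-well nuclei counts divided by vehicle-well nuclei counts. Counts came from 4× images of lung cancer cell lines grown in 1536-well plates for 5 days after pin-tool dosing on the day after seeding. Dosing used one drug alone or a fixed anchor-drug dose plus five library-drug doses (not always all listed) in √10 steps, and values are medians of duplicate plates.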

[1] = compound: CC1=CC=C(C=C1)C(=O)CN2C3=C(CCCC3)SC2=N [Pifithrin_alpha] + C[C@@H](Oc1cc(-c2cnn(C3CCNCC3)c2)cnc1N)c1c(Cl)ccc(F)c1Cl [Crizotinib] (partner 1 µM)
Summary of the method: as §1

Bemcentinib + Tozasertib = compound: Nc1nc(Nc2ccc3c(c2)CC[C@@H](N2CCCC2)CC3)nn1-c1cc2c(nn1)-c1ccccc1CCC2 [Bemcentinib] + Cc1cc(Nc2cc(N3CCN(C)CC3)nc(Sc3ccc(NC(=O)C4CC4)cc3)n2)n[nH]1 [Tozasertib] (partner 0.1 µM)
Summary of the method: as §1

Axitinib + Lapatinib = compound: CNC(=O)c1ccccc1Sc1ccc2c(/C=C/c3ccccn3)n[nH]c2c1 [Axitinib] + CS(=O)(=O)CCNCc1ccc(-c2ccc3ncnc(Nc4ccc(OCc5cccc(F)c5)c(Cl)c4)c3c2)o1 [Lapatinib] (partner 2 µM)
Summary of the method: as §1

Cell Line	relative viability (Bemcentinib + Linsitinib; first compound 0.04 µM)	relative viability (Bemcentinib + Linsitinib; first compound 0.1265 µM)	relative viability (Bemcentinib + Linsitinib; first compound 0.4 µM)	relative viability (Bemcentinib + Linsitinib; first compound 1.265 µM)	relative viability (Bemcentinib + Linsitinib; first compound 4 µM)	relative viability ([1]; first compound 1 µM)	relative viability ([1]; first compound 3.162 µM)	relative viability ([1]; first compound 10 µM)	relative viability ([1]; first compound 100 µM)	relative viability (Bemcentinib + Tozasertib; first compound 0.04 µM)	relative viability (Bemcentinib + Tozasertib; first compound 0.1265 µM)	relative viability (Bemcentinib + Tozasertib; first compound 0.4 µM)	relative viability (Bemcentinib + Tozasertib; first compound 4 µM)	relative viability (Axitinib + Lapatinib; first compound 0.005 µM)	relative viability (Axitinib + Lapatinib; first compound 0.01581 µM)	relative viability (Axitinib + Lapatinib; first compound 0.05 µM)	relative viability (Axitinib + Lapatinib; first compound 0.1581 µM)	relative viability (Axitinib + Lapatinib; first compound 0.5 µM)	relative viability (Bemcentinib + Tozasertib; first compound 1.265 µM)	relative viability ([1]; first compound 31.62 µM)
HCC-78	0.572	0.56	0.49	0.634	0.806	0.319	0.289	0.321	0.321	0.43	0.445	0.421	0.355	0.865	0.724	0.642	0.701	0.47	–	–
HCC-366	0.612	0.921	1.14	0.604	0.881	0.812	0.517	0.418	0.198	0.125	0.101	0.119	0.11	0.99	0.961	1.09	1.03	1.16	0.149	–
HCC-827	0.952	0.992	0.936	0.947	0.988	0.87	0.928	0.875	0.82	0.474	0.458	0.421	0.417	0.209	0.169	0.138	0.186	0.212	0.408	0.693
HOP-62	1.12	0.986	–	1.08	0.99	0.97	1.14	0.848	1.04	0.379	0.413	0.35	0.387	0.891	0.883	1.01	0.863	1.06	0.39	0.645
LC-2-ad	0.831	0.851	0.835	0.888	0.894	–	0.505	0.425	0.473	0.451	0.478	0.451	0.442	0.935	0.99	1.06	0.985	1.03	0.486	–
LCLC-97TM1	0.183	0.216	–	0.204	0.196	–	0.45	0.277	0.306	0.214	0.214	0.22	0.186	0.74	1.17	1.01	0.927	0.725	0.246	–
LK-2	0.836	0.57	0.677	0.551	1.05	0.2	0.22	0.217	0.212	0.166	0.164	0.19	0.168	0.916	–	0.776	0.745	0.625	0.178	–
LOU-NH91	0.942	0.895	0.959	0.943	0.956	0.704	0.722	0.748	0.654	0.651	0.639	0.635	0.63	0.839	0.789	0.836	0.711	0.705	0.709	0.689
LU99A	0.524	0.555	0.56	0.499	0.562	0.565	0.633	0.496	0.699	0.263	0.31	0.248	0.258	0.879	0.987	0.885	1.04	1.04	0.264	–
LXF-289	0.955	1.06	0.972	0.991	0.995	0.878	0.813	0.805	0.788	0.179	0.2	0.185	0.205	0.899	0.831	0.921	0.869	0.888	0.185	0.696
NCI-H23	0.576	0.692	0.554	0.72	0.568	0.591	0.596	0.432	0.506	0.389	0.632	0.327	0.366	1.22	1.1	1.15	1.01	1.28	0.407	0.426
NCI-H322M	0.994	0.978	0.9	1.01	1.04	0.894	0.907	0.871	0.986	0.5	0.582	0.483	0.525	0.658	0.603	0.591	0.566	0.652	0.527	0.674
NCI-H358	0.77	0.795	0.788	0.668	0.796	0.616	0.589	0.516	0.625	0.11	0.129	0.106	0.119	0.46	0.401	0.437	0.374	0.469	0.0963	0.428
NCI-H460	0.907	1.04	1.08	0.983	0.86	1.4	0.827	0.912	0.962	0.432	0.619	0.525	0.524	1.15	0.999	0.809	0.953	1.35	0.364	–
NCI-H520	0.85	0.982	1.08	1.01	1.18	1.19	0.805	0.731	0.833	0.526	0.379	0.411	0.484	0.902	0.778	0.771	0.751	0.785	0.452	0.509
NCI-H596	1.03	1.03	1.03	1.17	1.06	0.953	0.92	0.952	1.02	0.87	1.05	1.14	0.799	1.11	0.935	1.03	0.887	1.14	0.94	0.883

Cell Line	relative viability (Bemcentinib + Linsitinib; first compound 0.04 µM)	relative viability (Bemcentinib + Linsitinib; first compound 0.1265 µM)	relative viability (Bemcentinib + Linsitinib; first compound 0.4 µM)	relative viability (Bemcentinib + Linsitinib; first compound 1.265 µM)	relative viability (Bemcentinib + Linsitinib; first compound 4 µM)	relative viability ([1]; first compound 1 µM)	relative viability ([1]; first compound 3.162 µM)	relative viability ([1]; first compound 10 µM)	relative viability ([1]; first compound 100 µM)	relative viability (Bemcentinib + Tozasertib; first compound 0.04 µM)	relative viability (Bemcentinib + Tozasertib; first compound 0.1265 µM)	relative viability (Bemcentinib + Tozasertib; first compound 0.4 µM)	relative viability (Bemcentinib + Tozasertib; first compound 4 µM)	relative viability (Axitinib + Lapatinib; first compound 0.005 µM)	relative viability (Axitinib + Lapatinib; first compound 0.01581 µM)	relative viability (Axitinib + Lapatinib; first compound 0.05 µM)	relative viability (Axitinib + Lapatinib; first compound 0.1581 µM)	relative viability (Axitinib + Lapatinib; first compound 0.5 µM)	relative viability (Bemcentinib + Tozasertib; first compound 1.265 µM)	relative viability ([1]; first compound 31.62 µM)
NCI-H647	1.17	1.35	1.12	1.28	1.17	0.838	1.03	0.927	0.605	0.304	0.286	0.28	0.246	1.07	1.09	1.29	1.09	1.41	0.317	–
NCI-H661	0.587	0.53	0.609	0.656	0.548	1.16	0.93	0.908	0.988	0.357	0.344	0.338	0.339	0.608	0.522	0.359	0.481	0.534	0.34	1.17
NCI-H727	0.331	0.286	0.288	0.3	0.293	0.789	0.78	0.823	0.673	0.537	0.759	0.606	0.58	1.05	0.952	0.71	0.867	0.953	0.629	0.556
NCI-H838	0.995	1.08	1.02	1.08	1.05	0.829	0.746	0.667	0.625	0.281	0.268	0.264	0.291	1.29	0.853	1.11	1.01	1.03	0.262	0.496
NCI-H1355	0.858	0.98	0.848	0.903	0.99	0.995	0.734	0.62	0.733	0.529	0.569	0.562	0.538	0.976	1.08	0.994	1	0.893	0.61	0.619
NCI-H1437	1.03	1.14	1.16	1.12	1.18	1.05	0.962	0.892	1.02	0.399	0.435	0.436	0.401	0.851	0.743	0.91	0.733	0.926	0.421	0.763
NCI-H1651	0.958	0.965	1.15	1.15	1.08	0.942	0.924	0.934	0.959	0.671	0.835	0.87	0.635	0.89	0.706	0.929	0.713	0.942	0.77	0.835
NCI-H1666	0.932	0.872	0.958	0.972	0.707	0.665	0.63	0.549	0.316	0.605	0.619	0.621	0.595	0.767	0.741	0.608	0.62	0.946	0.594	0.474
NCI-H1734	0.856	0.913	0.952	1.01	0.836	0.826	0.647	0.686	0.604	0.245	0.28	0.25	0.27	1.03	1.07	1.15	1.02	0.954	0.256	0.592
NCI-H1755	1.03	1.02	1.04	1.04	1.11	0.858	0.78	0.771	0.864	0.64	0.742	0.626	0.613	1.06	0.998	1.06	1.04	0.99	0.607	0.634
NCI-H1915	1.05	1.13	1.1	1.11	1.1	0.867	0.979	0.912	1.25	0.511	0.462	0.44	0.443	0.994	0.99	0.994	0.922	1	0.468	–
NCI-H1944	1.25	1.08	1.28	1.16	1.1	1.13	1.18	0.866	0.958	0.258	0.261	0.255	0.242	0.86	0.802	0.907	0.827	0.68	0.251	–
NCI-H1975	0.981	1.03	1.03	1.06	1.02	0.881	0.8	0.659	0.611	0.689	0.881	1.02	0.818	1.02	0.841	0.899	0.871	0.953	0.672	0.537
NCI-H1993	0.699	0.735	0.776	0.773	0.804	–	0.771	0.815	0.794	0.548	0.551	0.592	0.588	0.952	0.971	0.841	0.735	0.731	0.56	0.797
NCI-H2009	1.21	1.25	1.14	1.17	1.21	0.963	1.03	0.955	0.857	0.741	0.785	0.765	0.677	0.92	1.05	0.9	1.02	0.9	0.569	0.679
NCI-H2023	0.689	0.721	0.821	0.877	0.678	0.505	0.501	0.381	0.37	0.484	0.438	0.433	0.273	0.752	0.924	1.03	0.775	0.759	0.295	0.3
